The values that follow come from US7041787B2, “Design and use of advanced zinc chelating peptides to regulate matrix metalloproteinases” (Kimberly-Clark Worldwide, Inc., priority 2000, dated 2006).

*1 amine or outer side, *2 acyl side, *3 side chain or, on linkers, in order; H or OH if unused. Where a SMILES comes first, the peptide text is derived from it. [ ]: non-standard residue; d: D form. The star is where a group is joined. X2 = O=C(O)CN(CC(=O)O)CC(=O)NC(=O)C[C@H](N[*:1])C(=O)[*:2]; X3 = O=C(O)CN(CC(=O)O)CC(C(=O)NCCS*)N(CC(=O)O)CC(=O)O; X1 = O=C(O)CN(CC(=O)O)c1cc(F)ccc1OCC(=O)*

Series [1] relates to Epiderm skin model. Kind of series: Epiderm skin equivalent viability (MTT) assay. Particulars: 10 mM peptide in PBS, 12 hours; differences not significant. The series is classed as cell-based. The procedure:
The relative toxicity of the chelating and substrate peptides was assayed using the skin model Epiderm that is commercially available from MatTek Corp. The individual skin sample containers were preincubated in culture medium at 37° C. under 5% CO2 for two hours prior to the addition of the peptide constructs. The sample containers were transferred to 6 well plates that contained fresh media. All peptides were dissolved in PBS at a final concentration of 10 mM, and 100 μL of each peptide solution was pipetted onto the surface of the Epiderm sample container. Incubation was continued for 12 hours at 37° C. under 5% CO2. After the incubation period, the sample containers were washed three times with PBS and the sample containers were transferred to a 24 well plate that contained 300 μL of MTT assay media per well (MTT concentration was 1 mg/mL). The colorimetric assay was allowed to develop for three hours (incubation at 37° C. under 5% CO2). Sample containers were then transferred to a 24 well culture plate that contained 2 mL of isopropanol per well. […] Absorbance readings were taken at 570 nm and 650 nm for each sample. The percent viability of each sample relative to a PBS control was calculated as: 100×(OD570^sam−OD650^sam)/(OD570^con−OD650^con) (5) Routinely, each peptide sample was assayed in duplicate or triplicate. […]

The target of series [2] is T1, MMP-9 (Homo sapiens, UniProt P14780).
T1 construct: Active MMP-9 enzyme was purchased from Calbiochem; purchased Calbiochem
Description: Enzymatic hydrolysis of fluoresceinated collagen by MMP-9 (fluorescein release assay). The series is classed as biochemical. Particulars: MMP-9:ChePep-1 molar stoichiometries 1:0 to 1:1, FIG. 1. Here is the method: Two enzymatic assays were performed. The first assay measured the enzymatic hydrolysis of fluoresceinated collagen by MMP-9 as a function of time. Fluoresceinated collagen (Molecular Probes, Inc.), at a concentration of 5 μM was added to reaction buffer (50 mM Tris-HCl (pH 7.6), 150 mM NaCl, 5 mM CaCl2, 0.1 mM NaN3) and was placed into a Spectrosil quartz fluorometer cuvette. MMP at a concentration of 0.1 μM was mixed with varying amounts of chelating peptide having SEQ ID No. 4 or 6 and incubated at 25° C. for 10 minutes to effect binding. The protein mixture was added to the collagen substrate and mixed quickly. Fluorescence emission intensity at 520 nm was measured as a function of time (excitation wavelength 495 nm) in a Shimadzu RF5301 fluorometer. The fluorescein release assay was used to determine the inhibitory constant (Ki) of the chelating peptide inhibitor ([I]) according to Segel (1993) via the use of Dixon plots (1/v vs. [I]), such that: slope=Km/(VmaxKi[S]) (1) where Km is the Michaelis constant, Vmax is the reaction maximum velocity, and [S] is the substrate concentration.

In series [3] the target is T1, MMP-9. Kind of series: FRET substrate peptide cleavage assay with MMP-9. The series is classed as biochemical. Conditions: for Regulation of MMP-9 in FRET assay (in words): ChePep:MMP-9 molar stoichiometries 0.1:1 to 0.3:1, FIGS. 2-5; for Regulation of MMP-9 compared with other ChePeps (in words): FRET assay, comparison of molar stoichiometries. The procedure:
The second assay utilized the technique of fluorescence resonance energy transfer (FRET). The substrate peptide (Calbiochem #444221) comprised seven amino acids, coupled to a carboxyl terminal dinitrophenyl acceptor, and an amino terminal 2-aminobenzo-anthraniloyl (Abz) moiety donor. Cleavage of this substrate by MMP-9 results in the liberation of a fluorescent product (365 nm excitation, 450 nm emission). […] MMP at a concentration of 0.1 μM was mixed with varying amounts of chelating peptide (0, 0.01, 0.02, 0.04, and 0.1 μM) and incubated at 25° C. for 10 minutes to effect binding. The protein mixture was added to the peptide substrate and mixed quickly. Fluorescence intensity as a function of time was measured with a Dynex MFX fluorescence microtiter plate reader. Fluorescence intensity was related back to moles of peptide cleaved by producing a standard curve with an Abz containing non-FRET peptide. Inhibitory constants were derived from the curves and are listed below in Table 2.

In series [4] the target is T1, MMP-9. Kind of series: Surface plasmon resonance (BiaCore) binding of chelating peptide to immobilized MMP-9. Conditions: FIG. 6. Here is the method:
The BiaCore-X surface plasmon resonance (SPR) device was utilized to measure the interaction between the chelating peptide (CP) and MMP-9. For these experiments a carboxymethyl dextran sensor chip (BiaCore, AB; CM-5, Lofas et al., 1993) was activated with 50 mM N-hydroxysuccinimide, 0.2 M N-ethyl-N′-(dimethylaminopropyl)-carbodiimide at a flow rate of 10 μL per minute for ten minutes. MMP-9 at a concentration of 75 ng/μL was coupled to the activated surface at a flow rate of 10 μL per minute for ten minutes. The final surface was inactivated by flowing 1 M ethanolamine HCl at a rate of 10 μL per minute for five minutes over the sensor surface. CP was flowed over the sensor surface at a rate of 20 μL per minute, and at concentrations of 10, 25, and 50 nM. Binding isotherms were evaluated by simultaneously fitting the forward (ka) and reverse (kd) rate constants to the following formula: d[CP˜MMP-9]/dt=(ka[CP][MMP-9])−(kd[CP˜MMP-9]) (2) (Karlsson and Falt, 1997) where [CP], [MMP-9], and [CP˜MMP-9] are the concentrations of free chelating peptide, free MMP-9, and the complex respectively. […]
A general note: Surface plasmon resonance follows binding to a sensor surface in real time, without labels.

T1 sequence (P14780 107-707 limits assumed): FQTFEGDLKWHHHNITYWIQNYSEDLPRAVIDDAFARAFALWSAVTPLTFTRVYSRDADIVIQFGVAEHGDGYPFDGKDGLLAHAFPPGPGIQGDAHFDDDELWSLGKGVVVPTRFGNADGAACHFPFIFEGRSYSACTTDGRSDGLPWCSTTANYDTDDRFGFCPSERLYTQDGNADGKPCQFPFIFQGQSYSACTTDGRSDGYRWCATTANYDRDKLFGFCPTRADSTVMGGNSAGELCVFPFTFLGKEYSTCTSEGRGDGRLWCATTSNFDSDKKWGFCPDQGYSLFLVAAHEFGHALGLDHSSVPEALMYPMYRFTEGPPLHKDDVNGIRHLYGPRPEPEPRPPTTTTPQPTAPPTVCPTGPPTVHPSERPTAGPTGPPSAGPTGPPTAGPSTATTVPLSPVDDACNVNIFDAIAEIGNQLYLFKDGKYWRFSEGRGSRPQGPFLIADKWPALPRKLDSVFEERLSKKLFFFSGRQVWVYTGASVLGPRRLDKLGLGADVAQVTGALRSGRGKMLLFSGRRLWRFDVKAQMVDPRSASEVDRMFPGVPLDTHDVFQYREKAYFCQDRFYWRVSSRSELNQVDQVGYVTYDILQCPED

As to “2-amino-4-fluorophenol N,N,O triacetic acid [AFTA]”, the “Percent viability relative to PBS control, by zinc chelator of the construct” value in series [1] stood at 90.5%.

With `CC(C)[C@H](NC(=O)[C@@H]1CCCN1C(=O)[C@@H](NC(=O)[C@H](C)NC(=O)[C@H](CO)NC(=O)[C@@H](N)CSSCCNC(=O)C(CN(CC(=O)O)CC(=O)O)N(CC(=O)O)CC(=O)O)C(C)C)C(=O)N[C@@H](Cc1c[nH]cn1)C(=O)O` (some centres unmarked) [ChePep-1] (H-C(X3)SAVPVH-OH), the “Regulation of MMP-9 hydrolysis of fluoresceinated collagen (in words)” value in series [2] is listed as “prevents the enzyme from degrading fluoresceinated collagen in a dose dependent manner”.

`CC(C)[C@H](NC(=O)[C@@H]1CCCN1C(=O)[C@@H](NC(=O)[C@H](C)NC(=O)[C@H](CO)NC(=O)[C@@H](N)CC(=O)NC(=O)CN(CC(=O)O)CC(=O)O)C(C)C)C(=O)N[C@@H](Cc1c[nH]cn1)C(N)=O` [ChePep-2] (H-[X2]SAVPVH-NH2): in series [3], the “Regulation of MMP-9 in FRET assay (in words)” value is reported as “dose dependent manner” and the “Regulation of MMP-9 compared with other ChePeps (in words)” value is listed as “significantly more effective in regulating MMP-9 than was ChepPep-1”.

In the case of `CC[C@H](C)[C@H](N)C(=O)N[C@@H](Cc1ccc(O)cc1)C(=O)N[C@H](C(=O)N[C@@H](C)C(=O)N[C@@H](CSSCCNC(=O)C(CN(CC(=O)O)CC(=O)O)N(CC(=O)O)CC(=O)O)C(=O)N[C@@H](CCSC)C(=O)N[C@@H](CO)C(=O)N[C@@H](C)C(=O)N[C@H](C(N)=O)C(C)C)[C@@H](C)O` (some centres unmarked) [ChePep-3] (H-IYTAC(X3)MSAV-NH2; N-terminus assumed), the “Regulation of MMP-9 compared with other ChePeps (in words)” value in series [3] was “nearly identical ability to regulate MMP-9”.

Regarding `CC[C@H](C)[C@H](N)C(=O)N[C@@H](Cc1ccc(O)cc1)C(=O)N[C@H](C(=O)N[C@@H](C)C(=O)N[C@@H](CC(=O)NC(=O)CN(CC(=O)O)CC(=O)O)C(=O)N[C@@H](CCSC)C(=O)N[C@@H](CO)C(=O)N[C@@H](C)C(=O)N[C@H](C(N)=O)C(C)C)[C@@H](C)O` [ChePep-4] (H-IYTA[X2]MSAV-NH2; N-terminus and C-terminus assumed), the “Regulation of MMP-9 compared with other ChePeps (in words)” value in series [3] is “nearly identical ability to regulate MMP-9”.

`CC(C)C(NC(=O)C(CS)NC(=O)C(NC(=O)C(CS)NC(=O)COc1ccc(F)cc1N(CC(=O)O)CC(=O)O)C(C)O)C(=O)N1CCCC1C(=O)O` (centres unmarked) [ChePep-6] (X1-CTCVP-OH; configuration not given here): in series [3], the “Regulation of MMP-9 in FRET assay (in words)” value was “effective MMP-9 regulator at low molar stoichiometries” and the “Regulation of MMP-9 compared with other ChePeps (in words)” value is given as “most potent regulator of all the ChePeps”. Further, the “SPR association / affinity for immobilized MMP-9 (in words)” value in series [4] (400 second association phase, 20 μL per minute) is “binds quickly and with high affinity”. Moreover, the “SPR dissociation from immobilized MMP-9 (in words)” value in series [4] (800 second dissociation phase) is on record as “does not dissociate”.

For “pyridine disulfide ethylenediaminetetraacetic acid [PSDE]”, the “Percent viability relative to PBS control, by zinc chelator of the construct” value in series [1] stood at 96.5%.
